One test deals with T1, TPH1 (Homo sapiens, UniProt P17752).
T1 construct: doubly truncated human TPH1 (ΔNH102-ΔCOOH402); made in house; host or cells: E. coli BL21(DE3)
As to the kind of experiment: Differential scanning fluorimetry (DSF) thermal stability assay. It is filed as binding. Particulars: for Tm (°C) ± SD (°C), primary screen: 0.075 mg/mL TPH1, 0.5% DMSO, three independent measurements (a: duplicates); for Kd: estimated from DSF dose-response, 2% DMSO, read-out: apparent KD (μM), dose-response. On the procedure: A fluorescence-based thermal stability assay (differential scanning fluorimetry, DSF) was used for testing the effects of HDIs on the thermal stability of TPH1.
For initial high throughput screening (HTS), compounds were prepared at a concentration of 10 mM (in some cases, 5 mM) in 100% DMSO. Initial HTS screening was performed on TPH1 with and without compounds using a LightCycler 480 Real-Time PCR System (Roche Applied Science). TPH1 was diluted to 0.075 mg/mL in 50 mM Tris pH 8.0, 200 mM NaCl, 0.5 mM TCEP, and 5% glycerol with 5x SYPRO Orange. Compounds were added to a final concentration of 50 μM. Controls with 0.5% DMSO were performed on each 384-well microplate. Unfolding curves were recorded from 20 to 95 °C at a scan rate of 2 °C/min and monitored at excitation = 465 nm and emission = 610 nm. Selected hits were validated further by serial dilution from 250 μM to 122 nM, keeping the DMSO concentration constant at 2%.
DSF data were analyzed using HTSDSF Explorer.[55] Melting temperature (Tm) was calculated from the maximum value of the first derivative of the unfolding curve. ΔTm (Tm with compound–averaged Tm in DMSO controls) was plotted for all validated curves and a threshold of 2 °C was set (typically, cutoff at ΔTm = 3-fold the SD of the Tm of the DMSO control).
Preliminary binding constants (KD) were calculated by fitting data to the equation [drawing 1] where ΔH0 is the enthalpy of the unfolding of the protein in the presence of ligand ([L]), and R is the gas constant.

For test [1], the target named is T2, doubly truncated human TPH1 (ΔNH102-ΔCOOH402) (Homo sapiens, UniProt P17752).
T2 construct: doubly truncated human TPH1 (ΔNH102-ΔCOOH402); made in house; host or cells: E. coli BL21(DE3)
Nature of the test: TPH1 enzyme activity assay (HPLC, 5-OH-Trp). Particulars: for IC50: best-fit IC50 (± SE), nonlinear regression, N.A. = no activity. The format is biochemical.
Protocol: (§1) TPH1 enzymatic activity assays were performed with the selected hits from the DSF screening in the presence and absence of 50 μM of each compound. The final concentration of DMSO was 0.5% (v/v), and control experiments used 0.5% DMSO in the absence of ligand. Assays were performed in a standard reaction mixture containing 40 mM Hepes pH 7.0, 200 mM NaCl, 0.1 mg/mL catalase, 0.5 mg/mL BSA, 10 μM ferrous ammonium sulfate, and 30 μM L-tryptophan (L-Trp). Compounds were incubated with TPH1 (0.02 mg/mL) in the reaction mixture for 10 min on ice.

A further test concerns the target T3, human TPH2 (Homo sapiens, UniProt Q8IWU9).
T3 construct: Full-length human TH isoform 1 (TH1), human PAH, human TPH2, and doubly truncated human TPH1; MBP (cleaved yes); made in house; host or cells: E. coli BL21(DE3)
T3 sequence (Q8IWU9 1-490): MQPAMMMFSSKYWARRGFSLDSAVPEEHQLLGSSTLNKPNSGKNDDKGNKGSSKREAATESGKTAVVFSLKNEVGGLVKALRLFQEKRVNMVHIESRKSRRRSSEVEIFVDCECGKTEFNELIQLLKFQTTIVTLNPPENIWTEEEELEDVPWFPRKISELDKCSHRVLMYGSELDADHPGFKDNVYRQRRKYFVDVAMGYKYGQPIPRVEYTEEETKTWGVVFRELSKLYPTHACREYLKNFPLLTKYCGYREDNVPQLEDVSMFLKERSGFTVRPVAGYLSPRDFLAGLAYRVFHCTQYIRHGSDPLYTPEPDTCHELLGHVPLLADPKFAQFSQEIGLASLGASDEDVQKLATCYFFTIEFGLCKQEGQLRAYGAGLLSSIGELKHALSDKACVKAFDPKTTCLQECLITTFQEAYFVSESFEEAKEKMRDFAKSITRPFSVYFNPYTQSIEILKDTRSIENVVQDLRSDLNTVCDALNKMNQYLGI
As to the kind of experiment: TPH2 enzyme activity assay (HPLC). The format is biochemical. Particulars: best-fit IC50 (± SE), nonlinear regression; N.A. = no activity.

The target in another test is T4, human PAH (Homo sapiens, UniProt P00439).
T4 construct: Full-length human TH isoform 1 (TH1), human PAH, human TPH2, and doubly truncated human TPH1; made in house; host or cells: E. coli TB1
T4 sequence (P00439 1-452): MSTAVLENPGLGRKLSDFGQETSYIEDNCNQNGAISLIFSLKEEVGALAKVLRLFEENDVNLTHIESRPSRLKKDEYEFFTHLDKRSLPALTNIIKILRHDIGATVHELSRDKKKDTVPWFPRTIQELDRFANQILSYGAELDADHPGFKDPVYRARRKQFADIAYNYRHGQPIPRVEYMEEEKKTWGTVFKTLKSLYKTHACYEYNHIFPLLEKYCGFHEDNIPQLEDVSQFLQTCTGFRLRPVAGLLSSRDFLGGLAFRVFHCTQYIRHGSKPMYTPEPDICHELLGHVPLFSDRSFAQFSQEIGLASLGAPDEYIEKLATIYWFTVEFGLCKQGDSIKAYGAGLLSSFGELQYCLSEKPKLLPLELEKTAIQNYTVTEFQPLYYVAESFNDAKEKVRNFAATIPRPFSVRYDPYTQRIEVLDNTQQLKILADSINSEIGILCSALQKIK
Nature of the test: PAH enzyme activity assay (HPLC, L-Tyr). Particulars: best-fit IC50 (± SE), nonlinear regression; N.A. = no activity; read-out: IC50 (μM) PAH. It is filed as biochemical.

The next test addresses T5, human TH isoform 1 (TH1) (Homo sapiens, UniProt P07101).
T5 construct: Full-length human TH isoform 1 (TH1); His6-ZZ fusion partner (one of the two preparations only) (cleaved yes); made in house; host or cells: E. coli BL21(DE3) pLysS (pET3a) or BL21 CodonPlus (pET-ZZ-1a)
As to the kind of experiment: TH enzyme activity assay (HPLC, L-DOPA). The format is biochemical. Particulars: best-fit IC50 (± SE), nonlinear regression; N.A. = no activity. As for the experimental part:
The activity of purified PAH, TH, TPH1, and TPH2 was measured using high-performance liquid chromatography (HPLC) as previously described.[50],[56],[57]
TH activities were performed in a standard reaction mixture containing 40 mM Hepes (pH 7.0), 0.1 mg/mL catalase, 10 μM ferrous ammonium sulfate, and 50 μM L-Tyr. Compounds were incubated with TH (0.01 mg/mL) in the reaction mixture for 10 min on ice. The enzymatic reaction was initiated by adding 200 μM BH4 and 2 mM DTT (final concentrations) and stopped by precipitation with 2% (v/v) acetic acid in ethanol after 5 min at 37 °C. The product, L-DOPA, was quantified by HPLC utilizing a fluorescence monitor set at 281 and 314 nm for excitation and emission, respectively.
GraphPad Prism (version 10; La Jolla, CA) was used for analyzing the enzyme inhibition data.

In another test the test system is HDAC 1. Particulars: cited from earlier work.
The next test concerns HDAC 8. Particulars: human recombinant HDAC, cited from earlier work.
In a further test the test system is HDAC 6. Particulars: cited from earlier work.
The mark [2] stands for this setting: human recombinant HDAC, ref 1 (PMID: 26443078).

Where “and” joins values, the source holds several entries; their conditions need not be identical. Equal entries are not always repeated. Where two headings read alike, the source gives them in different places.

T1 sequence (P17752 102-402): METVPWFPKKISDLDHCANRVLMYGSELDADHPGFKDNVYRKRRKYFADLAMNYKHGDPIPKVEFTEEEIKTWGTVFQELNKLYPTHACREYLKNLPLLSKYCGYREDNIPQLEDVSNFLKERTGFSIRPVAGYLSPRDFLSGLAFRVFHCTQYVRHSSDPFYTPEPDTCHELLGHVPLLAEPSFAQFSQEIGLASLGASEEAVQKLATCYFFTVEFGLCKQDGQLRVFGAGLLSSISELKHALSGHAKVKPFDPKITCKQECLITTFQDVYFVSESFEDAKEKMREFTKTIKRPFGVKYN
T2 sequence (P17752 102-402, stated change not applied): as the sequence (P17752 102-402) above
T5 sequence (P07101 1-497 isoform P07101-3): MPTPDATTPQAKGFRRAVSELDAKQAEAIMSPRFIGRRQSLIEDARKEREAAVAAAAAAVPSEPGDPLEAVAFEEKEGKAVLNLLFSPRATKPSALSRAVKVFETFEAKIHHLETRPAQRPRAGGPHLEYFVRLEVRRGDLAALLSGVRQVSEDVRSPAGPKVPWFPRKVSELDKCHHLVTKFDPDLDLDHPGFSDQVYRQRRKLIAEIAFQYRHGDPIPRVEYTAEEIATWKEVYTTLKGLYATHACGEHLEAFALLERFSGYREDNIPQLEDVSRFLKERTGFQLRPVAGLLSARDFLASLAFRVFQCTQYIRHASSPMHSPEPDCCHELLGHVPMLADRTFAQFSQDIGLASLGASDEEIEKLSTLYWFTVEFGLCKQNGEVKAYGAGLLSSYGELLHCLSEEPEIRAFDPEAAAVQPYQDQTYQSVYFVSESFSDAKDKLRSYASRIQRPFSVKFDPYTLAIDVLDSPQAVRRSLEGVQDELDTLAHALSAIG
Protocol for human TPH2: as §1

On to `O=C(NO)c1ccc(Cl)c(C(=O)Nc2ccc(Cl)cc2)c1` [EG22, 4-Chloro-3-(4-chlorophenylcarbamoyl)-N-hydroxybenzamide], for which the “Tm (°C) ± SD (°C), primary screen” value on TPH1 (DSF, 50 μM compound) was 59.4 ± 0.3 °C. Also, the “ΔTm (°C) ± SD (°C), primary screen” value at TPH1 (DSF, 50 μM compound, vs averaged Tm of 0.5% DMSO controls) is 3.9 ± 0.2 °C. For the same molecule, the Kd on TPH1 was 15.2 µM. In addition, the IC50 (as a rule, the concentration needed to halve the response being measured) in test [1] is 35.8 µM; against human TPH2, 10.7 µM; at human PAH, 0.89 µM and 0.9 µM; against human TH isoform 1 (TH1) it was 14.7 µM; with HDAC 8 (ref 4 (PMID: 34392190)) it was 0.18 ± 0.05 µM. Besides, in test [1] (compound 50 μM, 0.5% DMSO), the “inhibition of TPH1 activity at 50 μM” value is recorded as “more than 50%”. Also, in the test with HDAC 1 (@ 1 μM, ref 4 (PMID: 34392190)), the “HDAC 1 % inhibition @ 1 μM” value is reported as 20 ± 1%. Besides, the “HDAC 6 % inhibition @ 1 μM” value in the test with HDAC 6 (@ 1 μM, ref 4 (PMID: 34392190)) is given as 94 ± 4%.

`Cc1[nH]c2ccccc2c1CCNCc1ccc(/C=C/C(=O)NO)cc1` [panobinostat, reference compound]: on TPH1 (DSF, 50 μM compound), the “Tm (°C) ± SD (°C), primary screen” value was 56.0 ± 0.0 °C. In addition, the ΔTm (as a rule, the change in melting temperature against a reference sample) at 50 µM at TPH1 (DSF, 50 μM compound, vs averaged Tm of 0.5% DMSO controls, read-out: ΔTm (°C) ± SD (°C), primary screen) amounted to […]. The Kd at TPH1 is 15.6 µM. Besides, the IC50 was […] in test [1]; 43.6 µM against human TPH2; 0.57 µM and 0.6 µM at human PAH; 8.67 µM and 8.7 µM against human TH isoform 1 (TH1); […] in the test on HDAC 1 (setting [2]); […] in the test with HDAC 8 (ref 1 (PMID: 26443078)). Also, the IC50 in the test with HDAC 6 (setting [2]) was […]. Further, the inhibition – broadly, the percentage by which the read-out fell short of the control – at 50 µM in test [1] (compound 50 μM, 0.5% DMSO) was over 50%.

The values are drawn from paper PMC11587510, “Aromatic Amino Acid Hydroxylases as Off-Targets of Histone Deacetylase Inhibitors” (ACS Chemical Neuroscience, 2024).
